Tests used:
Format in all cases: cell-based, human
[1] = test system: Pgp+ (DiOC2(3)-dye effluxing cells) and CD62L+ T cells; assay: DiOC2(3) dye efflux plus CD62L-APC staining, flow cytometry of inhibitor-treated T cells; conditions: treatment for 13 days, IL2 + CD3 and CD28 antibodies
Procedure: (§1) The use of P-glycoprotein (Pgp)-mediated efflux of DiOC2(3) to isolate stem like T cells for adoptive cellular therapy has been described in application no. […] In the following examples, DiOC2(3) staining was used to study the effect of different inhibitors on generation of stem like T cells.
(§2) DAY 0: Blood was obtained from unidentified donor. After RBC lysis, PBMC were collected using Ficoll-Hypaque separation. […] T cells were cultured in three different conditions: • 1. XVIVO 15 medium (Lonza) with IL2 50 IU/ml, CD3 antibody (30 ng/ml) and CD28 antibody (30 ng/ml). • 2. XVIVO 15 medium (Lonza) with CD3 antibody (30 ng/ml) and CD28 antibody (30 ng/ml). • 3. XVIVO 15 medium (Lonza) with IL2 50 IU/ml DAY 1: Cells were plated in a 6-well plate at a density of 1 million cells in 2 ml/of media (as described above) and treated with different inhibitors
(§3) The cell growth medium was changed in 6-well plates and fresh drugs were added at same concentration for one more week.
(§4) […] (DAY 11): Culture medium was changed and fresh drugs were added in 6-well plates.
(§5) Subsequently, cells were washed with RPMI medium and dye was effluxed at 37° C. for 90 min. Cells were washed with […], stained with CD62L-APC (5 μl/100 μl/sample) at 4° C. for 1 h, washed twice with PBS+1% FBS and analyzed on flow cytometer to check if these drugs treatment leads to increase in Pgp+/CD62L positive population.
(§6) Day 0: Blood was obtained from unidentified donor. After RBC lysis, PBMC were collected using Ficoll-Hypaque separation. 200 million T cells were isolated from PBMCs using CD3 microbeads. T cells were cultured overnight in XVIVO 15 medium (Lonza) with IL2 (50 IU/ml), 30 ng/ml of CD3 and CD28 antibodies
(§7) Day 1: Cells were plated in 24-well plates at a density of 0.3 million cells/ml in each well and treated with different drugs.
(§8) On day 7, culture medium was replaced with fresh medium with fresh drugs.
(§9) On day 13, culture medium was replaced with fresh medium and fresh drugs. Half of the cells were transferred to 6-well plates.
(§10) Day 14: An aliquot of cells with all the treatments listed above (for 13 days) was used to stain the cells with DiOC2(3) (60 ng/ml in RPMI medium) at 4° C. for 40 min, washed with RPMI medium, DiOC2(3) dye was effluxed at 37° C. for 90 min, washed with PBS+1% FBS, stained with CD62L-APC antibody. CD62L is a marker for resting T cells. (5 μl/100 μl/sample) at 4° C. for 1 h, washed twice with PBS+1% FBS and analyzed on flow cytometer to check if these drugs are affecting the dye-effluxing or Pgp+ (i.e., DiOC2(3)-dull) T-cell population.

[2] = test system: CD8+CD45RA+CCR7+CD62L+ T cells; assay: Flow cytometry for CD8, CD45RA, CCR7 and CD62L on inhibitor-treated T cells; conditions: cells cultured for 14 days
Procedure: as §2
(§11) A second aliquot of the cells cultured for 13 days with all the treatments listed above (1-21) was washed with PBS+1% FBS, stained with CD8-PerCP, CD45RA-FITC, CCR7-PE and CD62L-APC (5% Y/100 μl/sample for each of 4 antibodies) at 4° C. for 1 h, washed twice with PBS+100 FBS and analyzed on flow cytometer to check if these drugs are enriching T stem cells showing surface expression of CD8+CD45RA+CCR7+CD62L+.
as §6, §7, §8, §9
as §11, with “14” for “13”, “above” for “above (1-21)”, “(5 ul/100 ul/sample” for “(5% Y/100 μl/sample”, “PBS+1%” for “PBS+100”, “enriching for” for “enriching”, “T” for “T stem”

[3] = test system: Pgp+ (DiOC2(3)-dye effluxing) T cells; assay: DiOC2(3) dye efflux flow cytometry of inhibitor-treated T cells; conditions: treatment for 13 days, IL2 + CD3 and CD28 antibodies
Procedure: as §1, §2, §3, §4, §5, §6, §7, §8, §9, §10

[4] = test system: CD45RA+CCR7+CD62L+ T cells; assay: Flow cytometry for CD45RA, CCR7 and CD62L on inhibitor-treated T cells (all T cells); conditions: cells cultured for 14 days
Procedure: as §2, §11, §6, §7, §8, §9
as §11, with “14” for “13”, “above” for “above (1-21)”, “(5 ul/100 ul/sample” for “(5% Y/100 μl/sample”, “PBS+1%” for “PBS+100”, “enriching for” for “enriching”, “T” for “T stem”

Row | Compound | p5: double +ve pgp+ and CD62L-APC+ from Live cells ([1]; 100 nM) | p5: double +ve pgp+ and CD62L-APC+ from Live cells ([1]; 200 nM) | GATE P4 CD8(PerCP)+, CD45RA(FITC)+, CCR7 (PE)+, CD62L(APC) ([2]; 100 nM) [%] | GATE P4 CD8(PerCP)+, CD45RA(FITC)+, CCR7 (PE)+, CD62L(APC) ([2]; 200 nM) [%] | p2: pgp+ from Live cells ([3]; 100 nM) | p2: pgp+ from Live cells ([3]; 200 nM) | GATE P6 CD45RA(FITC)+, CCR7 (PE)+, CD62L(APC) ([4]; 100 nM) [%] | GATE P6 CD45RA(FITC)+, CCR7 (PE)+, CD62L(APC) ([4]; 200 nM) [%] | p5: double +ve pgp+ and CD62L-APC+ from Live cells ([1]; 500 nM) | p5: double +ve pgp+ and CD62L-APC+ from Live cells ([1]; 1 μM) | GATE P4 CD8(PerCP)+, CD45RA(FITC)+, CCR7 (PE)+, CD62L(APC) ([2]; 500 nM) [%] | GATE P4 CD8(PerCP)+, CD45RA(FITC)+, CCR7 (PE)+, CD62L(APC) ([2]; 1 μM) [%] | p2: pgp+ from Live cells ([3]; 500 nM) | p2: pgp+ from Live cells ([3]; 1 μM) | GATE P6 CD45RA(FITC)+, CCR7 (PE)+, CD62L(APC) ([4]; 500 nM) [%] | GATE P6 CD45RA(FITC)+, CCR7 (PE)+, CD62L(APC) ([4]; 1 μM) [%]
1 | CCS(=O)(=O)N1CCC([C@@H](C)n2c(C)c(C(=O)NCc3c(OC)cc(C)[nH]c3=O)c3ccccc32)CC1 [CP1169] | 4.68 | 6.4 | 81.07 | 75.83 | 25.52 | 30.65 | 70.48 | 66.23 |  |  |  |  |  |  |  | 
2 | CCn1cc(-c2cccc(C(F)(F)F)c2)c2sc(C(=N)NC3CCS(=O)(=O)CC3)cc2c1=O [IBRD9] |  |  |  |  |  |  |  |  | 4.51 | 7.26 | 74.3 | 79.18 | 21.12 | 31.69 | 61.53 | 67.77
3 | CC[C@H](C)n1cc(C)c2c(C(=O)NCc3c(C)cc(C)[nH]c3=O)cc(-c3ccc(N4CCNCC4)nc3)cc21 [GSK126] | 8.83 |  | 76.44 |  | 36.37 |  | 67.75 |  | 8.08 |  | 79.6 |  | 26.61 |  | 67.65 | 

Reference: US20210290676A1, “IMPROVING THE EFFICACY AND SAFETY OF ADOPTIVE CELLULAR THERAPIES” (University of Southern California, priority 2018, published 2021)
